IC50 data for ten molecules are collected here from patent US20150148377A1, “Quinoline Derivatives” (NOVARTIS AG, priority 2011, published 2015).

The test system of this experiment is CD86 on rat B cells. In words: Rat B cell activation in whole blood (CD86 upregulation after anti-IgM and IL-4). The format is cell-based. To be noted: anti-IgM + rIL-4 stimulation, CD86 on CD45RA+ B cells, read-out: RWB/IC50 CD86. Here is the method: PI3Kδ has been recognized to modulate B cell function when cells are stimulated through the B cell receptor (BCR) (Okkenhaug et al. Science 297:1031 (2002). For assessing the inhibitory property of compounds on B cell activation, the upregulation of activation markers CD86 on rat B cells derived from whole blood is measured after stimulation with anti-IgM and recombinant IL-4. The CD86 molecule (also known as B7-2) is primarily expressed on antigen-presenting cells, including B cells. Resting B cells express CD86 at low levels, but upregulate it following stimulation of e.g. the BCR or IL-4 receptor. CD86 on a B cell interacts with CD28 on T cells. This interaction is required for optimal T cell activation and for the generation of an optimal IgG1 response (Carreno et al. Annu Rev Immunol. 20:29 (2002)).
Whole blood was collected from the abdominal aorta adult male Lewis rats (LEW/HanHsd) oby using a 10 ml syringe with hypodermic needle pre-coated with sodium heparin. Blood was transferred into 50 ml Falcon tubes and the anticoagulant concentration was adjusted to 100 U/ml.
For assessment of the in vitro effects of immunosuppressive drugs, heparinized blood was prediluted to 50% with medium. As medium served DMEM high glucose (Animed cat#1-26F01-I) supplemented with 100 U/ml penicillin, […], 2 mM L-glutamin, 50 mg/ml dextran 40 and 5% fetal calf serum (FCS, Fetaclone I, Gibco #10270-106). Then, 190 μl prediluted blood was spiked with 10 μl of pre-diluted test compound in 96 well U-bottomed microtiter plates (Nunc) resulting in a 3-fold serial dilution with a concentration range from 20 to 0.0003 μM. Control wells were pretreated with DMSO to obtain a final concentration of 0.5% DMSO. Cultures were set up in duplicates, mixed well by agitation on a plate shaker (Heidolph Titramax 101; 30 sec, speed 900), pipetting up and down and agitated on the plate shaker again. Cultures were incubated at 37° C., 5% CO2 for 1 hr. Then, 20 μl of polyclonal goat anti-rat IgM Ab (Serotec, cat#302001) and 10 μl of diluted recombinant rIL-4 (Immunotools #340085) were added to obtain final concentrations of 30 μg/ml and 5 ng/ml, respectively. Plates were mixed by agitation on a plate shaker as above and incubated for 24 hrs at 37° C., 5% CO2.
After incubation, 15 μl of a 25 mM EDTA solution was added per well and shaken for 15 min to detach adherent cells. For analysis of surface activation markers, samples were then stained with PE-Cy5-labeled anti-ratCD45RA (BD cat#557015) to allow gating on B cells in FACS analysis. In addition, samples were stained with PE-labeled anti-rat CD86 (BD cat#551396). All staining procedures were performed at RT for 30 min in the dark. After incubation, samples were transferred to 96-deep well V-bottomed microtiter plates (Corning #396096) containing 2 ml/well of BD Lysing Solution (BD #349202). After lysis of erythrocytes samples were washed with 2 ml of CeIIWASH (BD #349524). Data was acquired on an LSRII or FACScalibur flow cytometer (BD Biosciences) using Cellquest Plus or DIVA (version 6.1.1) software, respectively. Lymphocytes were gated in the FSC/SSC dot blot according to size and granularity and further analyzed for expression of CD45RA and activation markers. Data were calculated from dot blots or histograms as percentage of cells positively stained for activation markers within the CD45RA+ population.
The percentage inhibition of B cell activation after exposure to drug was calculated by the following formula: […]
ORIGIN 7 software (Origin Lab Corporation, Northampton, Mass.) was used for non-linear regression curve fitting. The drug concentration resulting in 50% inhibition (IC50) was obtained by fitting the Hill equation to inhibition data.
For `COc1ncc(-c2ccnc3ccc(O[C@H]4CCN(C(=O)C5CCS(=O)(=O)CC5)C4)cc23)cc1Cl` [Example A1, {(S)-3-[4-(5-Chloro-6-methoxy-pyridin-3-yl)-quinolin-6-yloxy]-pyrrolidin-1-yl}-(1,1-dioxo-hexahydro-1lambda*6*-thiopyran-4-yl)-methanone], the IC50 amounted to 73 nM.

With `COc1ncc(-c2ccnc3ccc(O[C@H]4CCN(C(=O)C5CCS(=O)(=O)CC5)C4)cc23)cc1C(F)F` [Example A6, {(S)-3-[4-(5-Difluoromethyl-6-methoxy-pyridin-3-yl)-quinolin-6-yloxy]-pyrrolidin-1-yl}-(1,1-dioxo-hexahydro-1lambda*6*-thiopyran-4-yl)-methanone], the IC50 was 43 nM.

As for `COc1ncc(-c2ccnc3ccc(O[C@H]4CCN(C(=O)[C@@H]5CCN(C(C)=O)C5)C4)cc23)cc1C` [Example A10, 1-((R)-3-{(S)-3-[4-(6-Methoxy-5-methyl-pyridin-3-yl)-quinolin-6-yloxy]-pyrrolidine-1-carbonyl}-pyrrolidin-1-yl)-ethanone], the IC50 was 59 nM.

Consider `COc1ncc(-c2ccnc3ccc(O[C@H]4CCN(C(=O)C5CCS(=O)(=O)CC5)C4)cc23)cc1C` [Example A15, (1,1-Dioxo-hexahydro-1lambda*6*-thiopyran-4-yl)-{(S)-3-[4-(6-methoxy-5-methyl-pyridin-3-yl)-quinolin-6-yloxy]-pyrrolidin-1-yl}-methanone], for which the IC50 is 101 nM.

Regarding `COc1ncc(-c2ccnc3ccc(O[C@H]4CCN(C(=O)[C@@H]5CCN(C(C)=O)C5)C4)cc23)cc1C(F)F` [Example A24, 1-((R)-3-{(S)-3-[4-(5-Difluoromethyl-6-methoxy-pyridin-3-yl)-quinolin-6-yloxy]-pyrrolidine-1-carbonyl}-pyrrolidin-1-yl)-ethanone], the IC50 turned out to be 47 nM.

Regarding `CCC(=O)N1CC[C@H](Oc2ccc3nccc(-c4cnc(S(C)(=O)=O)c(C)c4)c3c2)C1` [Example A25, 1-{(S)-3-[4-(6-Methanesulfonyl-5-methyl-pyridin-3-yl)-quinolin-6-yloxy]-pyrrolidin-1-yl}-propan-1-one], the IC50 was 443 nM.

In the case of `COc1ncc(-c2ccnc3ccc(O[C@H]4CCN(C(=O)[C@@H]5CCN(C(C)=O)C5)C4)c(C)c23)cc1C(F)F` [Example B1, 1-((R)-3-{(S)-3-[4-(5-Difluoromethyl-6-methoxy-pyridin-3-yl)-5-methylquinolin-6-yloxy]-pyrrolidine-1-carbonyl}-pyrrolidin-1-yl)-ethanone], the IC50 stood at 78 nM.

As to `COc1ncc(-c2ccnc3ccc(O[C@H]4CCN(C(=O)C5CCS(=O)(=O)CC5)C4)c(C)c23)cc1C` [Example B3, (1,1-Dioxo-hexahydro-1lambda*6*-thiopyran-4-yl)-{(S)-3-[4-(6-methoxy-5-methyl-pyridin-3-yl)-5-methyl-quinolin-6-yloxy]-pyrrolidin-1-yl}-methanone], the IC50 came to 107 nM.

On to `COc1ncc(-c2ccnc3cc(F)c(O[C@H]4CCN(C(=O)C5CCS(=O)(=O)CC5)C4)cc23)cc1C` [Example C1, (1,1-Dioxo-hexahydro-1lambda*6*-thiopyran-4-yl)-{(S)-3-[7-fluoro-4-(6-methoxy-5-methyl-pyridin-3-yl)-quinolin-6-yloxy]-pyrrolidin-1-yl}-methanone], for which the IC50 was determined as 86.5 nM.

`Cc1cc(-c2ccnc3cc(F)c(O[C@H]4CCN(C(=O)C5CCOCC5)C4)cc23)cnc1S(C)(=O)=O` [Example C2, {(S)-3-[7-Fluoro-4-(6-methanesulfonyl-5-methyl-pyridin-3-yl)-quinolin-6-yloxy]-pyrrolidin-1-yl}-(tetrahydro-pyran-4-yl)-methanone]: the IC50 worked out at 46.2 nM.
